#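 Tested at 5 concentrations; 48 h exposure; 96-well plates; endpoints linearly interpolated, else capped at highest concentration. At the GI50, growth is halved.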 Active and inactive are the calls of the source. No stated cut-off is given here; in the data, active = GI50 up to about 1.1 µM and inactive = higher.
# What was measured:
# Assay in all cases: NCI-60 cell line screen, 48 h
# HCT-116 = tested on: HCT-116
# SF-295 = tested on: SF-295
# RXF 393 = tested on: RXF 393
# MOLT-4 = tested on: MOLT-4
# Malme-3M = tested on: Malme-3M
# OVCAR-4 = tested on: OVCAR-4
# DMS-114 = tested on: DMS-114
# U-251 = tested on: U-251
# HT-29 = tested on: HT-29
# M19-MEL = tested on: M19-MEL
# K562 = tested on: K562
# SK-MEL-2 = tested on: SK-MEL-2
# OVCAR-5 = tested on: OVCAR-5
# NCI-H23 = tested on: NCI-H23
# LOX IMVI = tested on: LOX IMVI
# UO-31 = tested on: UO-31
# SR = tested on: SR
# HOP-18 = tested on: HOP-18
# SK-MEL-5 = tested on: SK-MEL-5
# HCC 2998 = tested on: HCC 2998
# KM-20L2 = tested on: KM-20L2
# DLD-1 = tested on: DLD-1
# LXFL 529 = tested on: LXFL 529
# KM12 = tested on: KM12
# EKVX = tested on: EKVX
# SF-268 = tested on: SF-268
# HOP-92 = tested on: HOP-92
# OVCAR-8 = tested on: OVCAR-8
# SK-MEL-28 = tested on: SK-MEL-28
# OVCAR-3 = tested on: OVCAR-3
# HOP-62 = tested on: HOP-62
# NCI-H522 = tested on: NCI-H522
# HCT-15 = tested on: HCT-15
# M14 = tested on: M14
# ACHN = tested on: ACHN
# RPMI-8226 = tested on: RPMI-8226
# SW-620 = tested on: SW-620
# SNB-75 = tested on: SNB-75
# TK-10 = tested on: TK-10
# COLO 205 = tested on: COLO 205
# UACC-257 = tested on: UACC-257
# SN12C = tested on: SN12C
# CAKI-1 = tested on: CAKI-1
# NCI-H226 = tested on: NCI-H226
# CCRF-CEM = tested on: CCRF-CEM
# DMS-273 = tested on: DMS-273
# NCI-H460 = tested on: NCI-H460
# HL-60 = tested on: HL-60
# IGROV-1 = tested on: IGROV-1
# SK-OV-3 = tested on: SK-OV-3
# SNB-19 = tested on: SNB-19
# A549 = tested on: A549
# UACC-62 = tested on: UACC-62
# 786-0 = tested on: 786-0
# SF-539 = tested on: SF-539
compound,measurement,setting,value
O=C1CN2C(Cl)(Cl)C2(c2ccccc2)c2cc(Cl)ccc2N1CC1CC1 (centres undefined),GI50,HCT-116,18.3 µM (inactive)
same,GI50,SF-295,9.46 µM (inactive)
same,GI50,RXF 393,18.7 µM (inactive)
same,GI50,MOLT-4,24 µM (inactive)
same,GI50,Malme-3M,17.3 µM (inactive)
same,GI50,OVCAR-4,30.3 µM (inactive)
same,GI50,DMS-114,36.2 µM (inactive)
same,GI50,U-251,19.1 µM (inactive)
same,GI50,HT-29,17.3 µM (inactive)
same,GI50,M19-MEL,35.4 µM (inactive)
same,GI50,K562,31.5 µM (inactive)
same,GI50,SK-MEL-2,17.3 µM (inactive)
same,GI50,OVCAR-5,37.4 µM (inactive)
same,GI50,NCI-H23,25.2 µM (inactive)
same,GI50,LOX IMVI,17.3 µM (inactive)
same,GI50,UO-31,26 µM (inactive)
same,GI50,SR,29.2 µM (inactive)
same,GI50,HOP-18,23.8 µM (inactive)
same,GI50,SK-MEL-5,20.2 µM (inactive)
same,GI50,HCC 2998,18.7 µM (inactive)
same,GI50,KM-20L2,23.4 µM (inactive)
same,GI50,DLD-1,16.9 µM (inactive)
same,GI50,LXFL 529,42.4 µM (inactive)
same,GI50,KM12,16.6 µM (inactive)
same,GI50,EKVX,31.8 µM (inactive)
same,GI50,SF-268,29.3 µM (inactive)
same,GI50,HOP-92,12.3 µM (inactive)
same,GI50,OVCAR-8,14.6 µM (inactive)
same,GI50,SK-MEL-28,17.3 µM (inactive)
same,GI50,OVCAR-3,19.6 µM (inactive)
same,GI50,HOP-62,23.4 µM (inactive)
same,GI50,NCI-H522,17.2 µM (inactive)
same,GI50,HCT-15,19.3 µM
same,GI50,M14,20.1 µM (inactive)
same,GI50,ACHN,23.8 µM (inactive)
same,GI50,RPMI-8226,37.2 µM (inactive)
same,GI50,SW-620,29.6 µM (inactive)
same,GI50,SNB-75,25.2 µM (inactive)
same,GI50,TK-10,33.8 µM (inactive)
same,GI50,COLO 205,19.9 µM (inactive)
same,GI50,UACC-257,18.9 µM (inactive)
same,GI50,SN12C,20.8 µM (inactive)
same,GI50,CAKI-1,23.3 µM (inactive)
same,GI50,NCI-H226,21.3 µM (inactive)
same,GI50,CCRF-CEM,27.2 µM (inactive)
same,GI50,DMS-273,25.5 µM (inactive)
same,GI50,NCI-H460,16.3 µM (inactive)
O=C1c2ccccc2C(=O)c2cc3c(cc21)C[S+]([O-])C3,GI50,SF-295,> 100 µM (inactive)
same,GI50,RXF 393,> 100 µM (inactive)
same,GI50,MOLT-4,> 100 µM (inactive)
same,GI50,Malme-3M,> 100 µM (inactive)
same,GI50,HL-60,> 100 µM (inactive)
same,GI50,OVCAR-4,> 100 µM (inactive)
same,GI50,DMS-114,> 100 µM (inactive)
same,GI50,U-251,> 100 µM (inactive)
same,GI50,HT-29,> 100 µM (inactive)
same,GI50,M19-MEL,> 100 µM (inactive)
same,GI50,K562,> 100 µM (inactive)
same,GI50,SK-MEL-2,> 100 µM (inactive)
same,GI50,OVCAR-5,> 100 µM (inactive)
same,GI50,NCI-H23,> 100 µM (inactive)
same,GI50,LOX IMVI,> 100 µM (inactive)
same,GI50,UO-31,> 100 µM (inactive)
same,GI50,IGROV-1,> 100 µM (inactive)
same,GI50,HOP-18,> 100 µM (inactive)
same,GI50,SK-MEL-5,> 100 µM (inactive)
same,GI50,HCC 2998,> 100 µM (inactive)
same,GI50,KM-20L2,> 100 µM (inactive)
same,GI50,SK-OV-3,> 100 µM (inactive)
same,GI50,DLD-1,> 100 µM (inactive)
same,GI50,LXFL 529,> 100 µM (inactive)
same,GI50,KM12,> 100 µM (inactive)
same,GI50,SNB-19,> 100 µM (inactive)
same,GI50,EKVX,> 100 µM (inactive)
same,GI50,SF-268,> 100 µM (inactive)
same,GI50,HOP-92,> 100 µM (inactive)
same,GI50,OVCAR-8,> 100 µM (inactive)
same,GI50,SK-MEL-28,> 100 µM (inactive)
same,GI50,OVCAR-3,> 100 µM (inactive)
same,GI50,HOP-62,> 100 µM (inactive)
same,GI50,NCI-H522,> 100 µM (inactive)
same,GI50,HCT-15,> 10 µM
same,GI50,M14,> 100 µM (inactive)
same,GI50,ACHN,> 100 µM (inactive)
same,GI50,RPMI-8226,> 100 µM (inactive)
same,GI50,SW-620,> 100 µM (inactive)
same,GI50,SNB-75,> 100 µM (inactive)
same,GI50,TK-10,> 100 µM (inactive)
same,GI50,COLO 205,> 100 µM (inactive)
same,GI50,UACC-257,> 100 µM (inactive)
same,GI50,A549,> 100 µM (inactive)
same,GI50,SN12C,20 µM (inactive)
same,GI50,UACC-62,> 100 µM (inactive)
same,GI50,CAKI-1,> 100 µM (inactive)
same,GI50,CCRF-CEM,> 100 µM (inactive)
same,GI50,786-0,> 100 µM (inactive)
same,GI50,DMS-273,> 100 µM (inactive)
same,GI50,NCI-H460,> 100 µM (inactive)
same,GI50,SF-539,> 100 µM (inactive)

# — ChEMBL document CHEMBL1201862, “PubChem BioAssay data set” (2004)
